Measurements: patent US9580459B2, “Water-soluble ursodeoxycholic acid prodrugs” (Metselex, Inc., priority 2013, dated 2017)

Legend:
primary rat hepatocytes [1] = experiment: TGFβ1-induced loss of cellular viability (CellTiter-Fluor viability assay); assay type: cell-based; conditions: presence or absence of 3 U/ml alkaline phosphatase; preliminary results
[2] = stability in Tris glycine buffer without enzyme (31P NMR); assay type: physicochemical; conditions: 0.100 M Tris glycine buffer with 1.0 mM ZnCl2 and 1.0 mM MgCl2, 1 h, no enzyme
Method: Compound 19d (10.0 mg, 0.016 mmol) or compound 3 (8.7 mg, 0.016 mmol) was dissolved in 0.6 mL of a 0.100 M Tris glycine buffer solution containing 1.0 mM ZnCl2 and 1.0 mM MgCl2. […] 50 μL of the previously prepared AP stock solution was further diluted by addition to 0.950 mL of a 0.100 M Tris glycine buffer containing 1.0 mM ZnCl2 and 1.0 mM MgCl2. […] A series of 42 inverse-gated decoupled ^31P NMR's were taken (24 scans each, approximately one minute acquisition time). Conversion (%) was determined from the relative integration of the starting material and product peaks, NMR time stamps were used to determine time. Each experiment was repeated three times.

primary rat hepatocytes [3] = experiment: TGFβ1-induced cytotoxicity (LDH release); assay type: cell-based; conditions: 100 μM, 12 hours, then 1 nmol/L TGF-β1 24 hours; alkaline phosphatase added for compound 19d; p<0.05
Method: To compare the in vitro cytoprotective effects of the new prodrugs with UDCA, an alcohol-linked phosphate prodrug (the 3-substituted prodrug compound 3) and the POMC prodrug compound 19d were evaluated for their ability to modulate TGFβ1-induced cytotoxicity. […] Therefore, AP was added to the culture medium whenever assessing the cytoprotective potential of compound 19d. The ability of compound 3 and compound 19d to inhibit TGFβ1-induced general cell death, as compared with UDCA were analyzed. […] Results are expressed as means±SEM of at least three different experiments (*p<0.01 from respective control; §p<0.05 from respective TGFβ). […] Similarly as before, UDCA, compound 3 and compound 19d, inhibited TGFβ1-induced cytotoxicity by about 40, 30 and 60%, respectively (p<0.05).
In another example, primary rat hepatocytes were isolated from male rats (100-150 g) by collagenase perfusion. Briefly, rats were anesthetized with phenobarbital sodium (100 mg/kg body weight) injected into the peritoneal cavity. […] Cell viability was determined by trypan blue exclusion and was typically 80-85%. […]
In another example, LDH, a stable cytosolic enzyme, is released to cell culture media following cell lysis, and can be used as a marker of cytotoxicity. […] Finally, absorbance was measured at 490 nm, with 690 nm as reference, using a Bio-Rad model 680-microplate reader (Bio-Rad Laboratories, Hercules, Calif.).

[4] = target: T1, alkaline phosphatase from bovine intestinal mucosa (Bos taurus, UniProt P19111); experiment: alkaline phosphatase catalyzed activation monitored by inverse-gated decoupled 31P NMR; assay type: biochemical; conditions: in vitro, Tris glycine buffer
T1 construct: alkaline phosphatase from bovine intestinal mucosa; purchased Sigma-Aldrich P5521-2KU; host or cells: bovine intestinal mucosa (tissue-derived)
T1 sequence (P19111 20-506 limits assumed): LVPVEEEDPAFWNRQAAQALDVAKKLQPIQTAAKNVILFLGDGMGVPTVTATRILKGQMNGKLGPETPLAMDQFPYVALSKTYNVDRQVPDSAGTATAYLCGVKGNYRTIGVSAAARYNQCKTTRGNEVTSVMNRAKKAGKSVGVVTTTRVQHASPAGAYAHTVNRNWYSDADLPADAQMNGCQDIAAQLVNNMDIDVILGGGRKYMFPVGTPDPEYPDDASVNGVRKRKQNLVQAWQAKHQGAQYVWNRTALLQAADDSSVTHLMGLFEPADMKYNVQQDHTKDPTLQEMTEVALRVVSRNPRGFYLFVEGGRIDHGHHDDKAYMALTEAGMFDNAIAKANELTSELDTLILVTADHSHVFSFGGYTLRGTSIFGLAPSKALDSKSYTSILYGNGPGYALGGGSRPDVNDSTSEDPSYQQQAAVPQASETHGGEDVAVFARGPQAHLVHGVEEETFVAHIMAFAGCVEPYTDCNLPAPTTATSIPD
Method: To determine whether the POMC prodrug was indeed activated under in vitro conditions faster than a prodrug where the phosphate moiety is directly linked to an alcohol, a series of experiments were conducted monitoring the alkaline phosphatase catalyzed activation of the prodrugs compound 19d and compound 3 by inverse-gated decoupled ^31P NMR. […] Each data point represents the mean of three separate experiments±standard error of the mean (SEM).
In another example, alkaline phosphatase from bovine intestinal mucosa (P5521-2KU, Sigma-Aldrich, St. Louis, Mo.) was dissolved in 2.0 mL of a 0.100 M […] glycine buffer containing 1.0 mM ZnCl2 and 1.0 mM MgCl2. This stock solution was stored at 4° C. between uses.
Compound 19d (10.0 mg, 0.016 mmol) or compound 3 (8.7 mg, 0.016 mmol) was dissolved in 0.6 mL of a 0.100 M Tris glycine buffer solution containing 1.0 mM ZnCl2 and 1.0 mM MgCl2. […] 50 μL of the previously prepared AP stock solution was further diluted by addition to 0.950 mL of a 0.100 M Tris glycine buffer containing 1.0 mM ZnCl2 and 1.0 mM MgCl2. 10.0 μL of this diluted AP solution was added to the prodrug solution by syringe. […] Conversion (%) was determined from the relative integration of the starting material and product peaks, NMR time stamps were used to determine time. […]

[5] = aqueous solubility of the prodrugs; assay type: physicochemical
Method: To obtain the 7-substituted phosphate ester prodrug of UDCA, benzyl ester 1 was treated with benzyl chloroformate and pyridine in dichloromethane as shown in FIG. 2. This led to a mixture of products, including 3-Cbz-protected alcohol (41%) (compound 4), 7-Cbz-protected alcohol (10%) (compound 5), and recovered starting material (41%). These products were readily separated by column chromatography, which allowed definitive confirmation of the regiochemistry of the prodrugs by ^1H NMR analysis, as the signal of the proton next to the Cbz-protected alcohol (Ha in FIG. 2) was a dddd in the major mono-substituted product (consistent with compound 4) and a ddd in the minor mono-substituted product (consistent with compound 5). Compound 4 was then converted into a 7-substituted phosphate ester prodrug (compound 7) using dibenzyl N,N-diethylphosphoramidite followed by oxidation with H2O2 and then Pd/C catalyzed debenzylation. Similar standard conditions converted compound 5 into the same 3-substituted phosphate ester prodrug (compound 3) that was obtained in FIG. 1. Both phosphate prodrugs (compound 3 and compound 7) were highly aqueously soluble, rapidly dissolving at all concentrations tested (up to 20 mg/mL), and were stable in solution for extended periods of time (>6 months) without any apparent decomposition. […]

SMILES | effect of alkaline phosphatase (AP) in the culture medium on cytoprotective properties (primary rat hepatocytes [1]) | decomposition by 31P NMR in buffer [2] | inhibition of TGFβ1-induced cytotoxicity (LDH release) (primary rat hepatocytes [3]) | rate of release of UDCA by alkaline phosphatase (compared with compound 3) [4] | aqueous solubility [5] [mg/mL]
C[C@H](CCC(=O)O)[C@H]1CC[C@H]2[C@@H]3[C@@H](O)C[C@@H]4C[C@H](OP(=O)([O-])[O-])CC[C@]4(C)[C@H]3CC[C@]12C.[Na+].[Na+] [compound 3, 3-(Phosphonatooxy)-ursodeoxycholic acid sodium salt] | does not significantly change | Neither compound showed decomposition | ~30% |  | 
CC(CCC(=O)OCOP(=O)(O)O)C1CCC2C3C(O)CC4CC(O)CCC4(C)C3CCC12C (stereo not shown) [compound 19, ursodeoxycholic acid phosphonooxymethoxy ester] | required activation by exogenous alkaline phosphatase |  |  | faster | 
C[C@H](CCC(=O)O)[C@H]1CC[C@H]2[C@@H]3[C@@H](OP(=O)([O-])[O-])C[C@@H]4C[C@H](O)CC[C@]4(C)[C@H]3CC[C@]12C.[Na+].[Na+] [compound 7, 7-(Phosphonatooxy)-ursodeoxycholic acid sodium salt] |  |  |  |  | ≥ 20
C[C@H](CCC(=O)O)[C@H]1CC[C@H]2[C@@H]3[C@@H](O)C[C@@H]4C[C@H](O)CC[C@]4(C)[C@H]3CC[C@]12C [UDCA, Ursodeoxycholic acid] |  |  | about 40% |  | 
